Assay results taken from ChEMBL document CHEMBL1153550, “In vitro study of Candida tropicalis isolates exhibiting paradoxical growth in the presence of high concentrations of caspofungin” (2007).
Values after ≈ are worked out from the molar mass of the structure shown. Active and inactive are the calls of the source. The calls are words filed in the database; no cut-off is given here.

What was measured:
Candida tropicalis [1] = assay: Antifungal activity against > 2 x 10^7 CFU/ml Candida tropicalis isolate 6 in antibiotic medium 3 assessed as partial growth after 24 hrs by broth microdilution method; format: functional, organism-based
Candida tropicalis [2] = assay: Antifungal activity against > 2 x 10^7 CFU/ml Candida tropicalis isolate 14 in RPMI 1640 medium assessed as partial growth after 24 hrs by broth microdilution method; format: functional, organism-based
Candida tropicalis [3] = assay: Antifungal activity against > 2 x 10^7 CFU/ml Candida tropicalis isolate 13 in RPMI 1640 medium assessed as partial growth after 24 hrs by broth microdilution method; format: functional, organism-based
Candida tropicalis [4] = assay: Antifungal activity against > 2 x 10^7 CFU/ml Candida tropicalis isolate 7 in RPMI 1640 medium assessed as partial growth after 24 hrs by broth microdilution method; format: functional, organism-based
Candida tropicalis [5] = assay: Antifungal activity against > 2 x 10^7 CFU/ml Candida tropicalis isolate 5 in RPMI 1640 medium assessed as partial growth after 24 hrs by broth microdilution method; format: functional, organism-based
Candida tropicalis [6] = assay: Antifungal activity against > 2 x 10^7 CFU/ml Candida tropicalis isolate 4 in RPMI 1640 medium assessed as partial growth after 24 hrs by broth microdilution method; format: functional, organism-based
Candida tropicalis [7] = assay: Antifungal activity against 2 x 10^7 CFU/ml Candida tropicalis ATCC 750 in antibiotic medium 3 after 24 hrs by broth microdilution method; format: functional; conditions: ATCC 750, 24 h
Candida tropicalis [8] = assay: Antifungal activity against 2 x 10^7 CFU/ml Candida tropicalis isolate 13 in antibiotic medium 3 after 24 hrs by broth microdilution method; format: functional; conditions: isolate 13, 24 h
Candida tropicalis [9] = assay: Antifungal activity against 2 x 10^7 CFU/ml Candida tropicalis isolate 12 in antibiotic medium 3 after 24 hrs by broth microdilution method; format: functional; conditions: isolate 12, 24 h
Candida tropicalis [10] = assay: Antifungal activity against 2 x 10^7 CFU/ml Candida tropicalis isolate 9 in antibiotic medium 3 after 24 hrs by broth microdilution method; format: functional; conditions: isolate 9, 24 h
Candida tropicalis [11] = assay: Antifungal activity against 2 x 10^7 CFU/ml Candida tropicalis isolate 15 in RPMI 1640 medium after 24 hrs by broth microdilution method; format: functional; conditions: isolate 15, 24 h
Candida tropicalis [12] = assay: Antifungal activity against 2 x 10^7 CFU/ml Candida tropicalis isolate 11 in RPMI 1640 medium after 24 hrs by broth microdilution method; format: functional; conditions: isolate 11, 24 h
Candida tropicalis [13] = assay: Antifungal activity against 10^5 CFU/ml Candida tropicalis isolate 5 in RPMI 1640 medium at 12.5 ug/ml treated for 48 hrs followed by incubation in drug free medium for 48 hrs by broth microdilution method; format: functional, organism-based
Candida tropicalis [14] = assay: Antifungal activity against 10^5 CFU/ml Candida tropicalis isolate 6 in RPMI 1640 medium at 12.5 ug/ml treated for 48 hrs followed by incubation in drug free medium for 48 hrs by broth microdilution method; format: functional, organism-based
Candida tropicalis [15] = assay: Antifungal activity against 10^5 CFU/ml Candida tropicalis isolate 7 in RPMI 1640 medium at 12.5 ug/ml treated for 48 hrs followed by incubation in drug free medium for 48 hrs by broth microdilution method; format: functional, organism-based
Candida tropicalis [16] = assay: Antifungal activity against 10^5 CFU/ml Candida tropicalis isolate 12 in RPMI 1640 medium at 12.5 ug/ml treated for 48 hrs followed by incubation in drug free medium for 48 hrs by broth microdilution method; format: functional, organism-based
Candida tropicalis [17] = assay: Antifungal activity against 10^5 CFU/ml Candida tropicalis isolate 13 in RPMI 1640 medium at 12.5 ug/ml treated for 48 hrs followed by incubation in drug free medium for 48 hrs by broth microdilution method; format: functional, organism-based
Candida tropicalis [18] = assay: Antifungal activity against Candida tropicalis isolate 5 in RPMI 1640 medium assessed as paradoxical growth at 6.25 ug/ml after 24 hrs by broth microdilution method; format: functional, organism-based
Candida tropicalis [19] = assay: Antifungal activity against Candida tropicalis isolate 6 in RPMI 1640 medium assessed as paradoxical growth at 6.25 ug/ml after 24 hrs by broth microdilution method; format: functional, organism-based
Candida tropicalis [20] = assay: Antifungal activity against Candida tropicalis ATCC 750 in RPMI 1640 medium assessed as paradoxical growth at 6.25 ug/ml after 24 hrs by broth microdilution method; format: functional, organism-based
Candida tropicalis [21] = assay: Antifungal activity against Candida tropicalis isolate 5 in RPMI 1640 medium assessed as paradoxical growth at 6.25 ug/ml after 48 hrs by broth microdilution method; format: functional, organism-based
Candida tropicalis [22] = assay: Antifungal activity against Candida tropicalis isolate 4 in RPMI 1640 medium assessed as paradoxical growth at 12.5 ug/ml after 24 hrs by broth microdilution method; format: functional, organism-based
Candida tropicalis [23] = assay: Antifungal activity against Candida tropicalis isolate 5 in RPMI 1640 medium assessed as paradoxical growth at 12.5 ug/ml after 24 hrs by broth microdilution method; format: functional, organism-based
Candida tropicalis [24] = assay: Antifungal activity against Candida tropicalis isolate 5 in RPMI 1640 medium assessed as paradoxical growth at 12.5 ug/ml after 48 hrs by broth microdilution method; format: functional, organism-based
Candida tropicalis [25] = assay: Antifungal activity against 10^5 CFU/ml Candida tropicalis clinical isolate in antibiotic medium 3 treated for 24 hrs followed by incubation in drug free medium for 48 hrs by broth microdilution method; format: functional, organism-based
Candida tropicalis [26] = assay: Fungicidal activity against Candida tropicalis isolate 15 at =< 3.12 ug/ml after 24 to 48 hrs by time-kill assay; format: functional, organism-based
Candida tropicalis [27] = assay: Antifungal activity Candida tropicalis isolate 4 in RPMI 1640 medium at 0.19 to 6.25 ug/ml after 24 hrs by time-kill assay; format: functional, organism-based
Candida tropicalis [28] = assay: Antifungal activity against 10^5 CFU/ml Candida tropicalis isolate 8 in RPMI 1640 medium at =< 0.09 ug/ml after 24 hrs followed by incubation in drug free medium for 48 hrs by broth microdilution method; format: functional, organism-based
Candida tropicalis [29] = assay: Antifungal activity against 10^5 CFU/ml Candida tropicalis isolate 7 in RPMI 1640 medium at =< 0.09 ug/ml after 24 hrs followed by incubation in drug free medium for 48 hrs by broth microdilution method; format: functional, organism-based
Candida tropicalis [30] = assay: Antifungal activity against 10^5 CFU/ml Candida tropicalis isolate 2 in RPMI 1640 medium at =< 0.09 ug/ml after 24 hrs followed by incubation in drug free medium for 48 hrs by broth microdilution method; format: functional, organism-based
Candida tropicalis [31] = assay: Antifungal activity against 10^5 CFU/ml Candida tropicalis isolate 6 in antibiotic medium 3 at 6.25 ug/ml treated for 24 hrs followed by incubation in drug free medium for 48 hrs by broth microdilution method; format: functional, organism-based
Candida tropicalis [32] = assay: Antifungal activity against 10^5 CFU/ml Candida tropicalis isolate 13 in RPMI 1640 medium at 12.5 ug/ml treated for 24 hrs followed by incubation in drug free medium for 48 hrs by broth microdilution method; format: functional, organism-based
Candida tropicalis [33] = assay: Antifungal activity against 10^5 CFU/ml Candida tropicalis isolate 11 in RPMI 1640 medium at 12.5 ug/ml treated for 24 hrs followed by incubation in drug free medium for 48 hrs by broth microdilution method; format: functional, organism-based
Candida tropicalis [34] = assay: Antifungal activity against 10^5 CFU/ml Candida tropicalis isolate 10 in RPMI 1640 medium at 12.5 ug/ml treated for 24 hrs followed by incubation in drug free medium for 48 hrs by broth microdilution method; format: functional, organism-based
Candida tropicalis [35] = assay: Antifungal activity against 10^5 CFU/ml Candida tropicalis isolate 8 in RPMI 1640 medium at 12.5 ug/ml treated for 24 hrs followed by incubation in drug free medium for 48 hrs by broth microdilution method; format: functional, organism-based

CC[C@H](C)C[C@H](C)CCCCCCCCC(=O)N[C@H]1C[C@@H](O)[C@@H](NCCN)NC(=O)[C@@H]2[C@@H](O)CCN2C(=O)[C@H]([C@H](O)CCN)NC(=O)[C@H]([C@H](O)[C@@H](O)c2ccc(O)cc2)NC(=O)[C@@H]2C[C@@H](O)CN2C(=O)[C@H]([C@@H](C)O)NC1=O [CASPOFUNGIN]
Activity (Candida tropicalis [1]): inactive | Activity (Candida tropicalis [2]): inactive | Activity (Candida tropicalis [3]): inactive | Activity (Candida tropicalis [4]): inactive | Activity (Candida tropicalis [5]): inactive | Activity (Candida tropicalis [6]): inactive | MIC (Candida tropicalis [7]): 0.024 µg/mL (≈ 0.022 µM) | MIC (Candida tropicalis [8]): 0.024 µg/mL (≈ 0.022 µM) | MIC (Candida tropicalis [9]): 0.024 µg/mL (≈ 0.022 µM) | MIC (Candida tropicalis [10]): 0.024 µg/mL (≈ 0.022 µM) | MIC (Candida tropicalis [11]): 0.024 µg/mL (≈ 0.022 µM) | MIC (Candida tropicalis [12]): 0.024 µg/mL (≈ 0.022 µM) | Activity (Candida tropicalis [13]): inactive | Activity (Candida tropicalis [14]): inactive | Activity (Candida tropicalis [15]): Active | Activity (Candida tropicalis [16]): inactive | Activity (Candida tropicalis [17]): inactive | Activity (Candida tropicalis [18]): inactive | Activity (Candida tropicalis [19]): inactive | Activity (Candida tropicalis [20]): inactive | Activity (Candida tropicalis [21]): inactive | Activity (Candida tropicalis [22]): inactive | Activity (Candida tropicalis [23]): inactive | Activity (Candida tropicalis [24]): inactive | Activity (Candida tropicalis [25]): Active | Activity (Candida tropicalis [26]): Active | Activity (Candida tropicalis [27]): Active | Activity (Candida tropicalis [28]): Active | Activity (Candida tropicalis [29]): Active | Activity (Candida tropicalis [30]): Active | Activity (Candida tropicalis [31]): inactive | Activity (Candida tropicalis [32]): inactive | Activity (Candida tropicalis [33]): inactive | Activity (Candida tropicalis [34]): inactive | Activity (Candida tropicalis [35]): inactive
